Measured values from patent publication US8710180B2, “VEGF-specific capture agents, compositions, and methods of using and making” (Indi Molecular, Inc., priority 2011, dated 2014).
Values joined by “and” are separate entries in the source; they are usually repeats but may differ in a detail not shown here. Identical values can stand only once. Like-named read-outs stand apart in the source and are kept apart here. Where a SMILES comes first, the peptide text is derived from it. Bridges are numbered along the chain shown (N, C = ends). Roman numbers before positions name the chains, in order. Triazole bridges read from a SMILES are 1,4-linked. [ ]: non-standard residue; d: D form. Lys(N3) = [N-]=[N+]=NCCCC[C@H](N)C(=O)O; Az4 = C-terminal azide group; dPra = C#CC[C@@H](N)C(=O)O; code X = not defined here

Experiments:
[1] = plasma protein binding by equilibrium dialysis; format: in vitro ADME; conditions: 10 μM, 37° C. overnight
Description: Equilibrium dialysis techniques were used to separate the fraction of unbound test compound from the fraction that is bound to protein.
Assays were carried out in a 96-well format in a dialysis block constructed from Teflon. The protein matrix was spiked with the test compound at 10 μM (n=2) with a final DMSO concentration of 1% (v/v). The dialysate compartment was loaded with 150 μL phosphate buffer (pH 7.5) and the sample side was loaded with equal volume of the spiked protein matrix. The dialysis plate was then sealed and incubated at 37° C. overnight (18±2 hours). After the incubation, samples were taken from each compartment, diluted with the phosphate buffer followed by addition of acetonitrile and centrifugation. The supernatants were then used for HPLC-MS/MS analysis. A control sample (n=2) was prepared from the spiked protein matrix in the same manner as the assay samples (without dialysis). This control sample served as the basis for the recovery determination. Samples were analyzed by HPLC-MS/MS using selected reaction monitoring. The HPLC conditions consisted of a binary LC pump with autosampler, a C18 column (2×20 mm), and gradient elution. The percent bound to proteins and the recovery were calculated as follows:
[formula] […] The recovery determination served as an indicator of reliability of the calculated protein binding value.

[2] = test system: Human umbilical vein endothelial cells (HUVECs); test: inhibition of HUVEC proliferation; format: cell-based; conditions: 48 h, read-out: IC50 (antagonist)
Description: HUVECs were cultured in M199 medium (pH 7.4) in 5% CO2 at 37° C. for 18 hours. Test compound and/or vehicle were incubated with cells (1.1×10^5/mL) in the presence of heparin (10 μg/mL) and 0.5% FBS at 37° C. for 48 hours. Capture agents were screened at 10, 1, 0.1, 0.01 and 0.001 μM and in duplicate. […] Subsequently, the reagent Calcein AM dye (20 μg/ml) was added for an additional 50 minute incubation period. Fluorescence intensity was read on SpectroFluor Plus plate reader.

[3] = plasma concentrations and pharmacokinetics of VEGF-PCC after a single IV or IP dose in mice, LC-MS/MS; format: in vivo, mouse; conditions: for Plasma concentration: individual animal; for C0: iv
Description: Test article: VEGF-PCC (IN-VT-1001 Triligand) (PCC monomer) Ac-[…]-Tz4-lfrew-Tz4-eeird (SEQ ID NO: 71). The underlined region inclusive of the Cys residues is cyclized by a disulfide bond, Ac=N-terminal acetylation, and Tz4=1,4-disubstituted 1,2,3-triazole.
The LC-MS/MS system for analysis was comprised of an Agilent 1200 high performance liquid chromatography (HPLC) and a 5500 Qtrap mass spectrometer (Applied Biosystems by Life Technologies, Carlsbad, Calif.).
Concentrations of VEGF-PCC in mouse plasma were determined using a non-validated LC MS/MS assay with Angiotensin I as the internal standard following a solid phase extraction method. Individual VEGF-PCC calibration and QC standards were prepared from the respective intermediate stock solutions by addition to naïve mouse plasma. The target working range of the calibration curve was 50 to 5,000 ng/mL in plasma and the target concentrations of the QC standards were 150 to 3,750 ng/mL in plasma for VEGF-PCC.
Mice received a single IV dose of VEGF-PCC at 1 mg/kg. A summary of the plasma concentrations for individual animals is shown in Table A. Plasma pharmacokinetic parameters are listed in Table 9.
Mice received a single IP dose of VEGF-PCC at 5 mg/kg. A summary of the plasma concentrations for individual animals is shown in Table B. Plasma pharmacokinetic parameters are listed in Table 9.

[4] = biological target: T1, human VEGF165 binding to VEGFR2 (KDR) (Homo sapiens, UniProt P15692); test: competitive ELISA, inhibition of VEGF165 binding to VEGFR2; conditions: concentrations tested <50 μM
T1 construct: biotin (chemical labelling, Sulfo-NHS-LC-biotin); purchased R&D Systems (partner VEGFR2-Fc only)
T1 sequence (P15692 27-191 isoform P15692-4): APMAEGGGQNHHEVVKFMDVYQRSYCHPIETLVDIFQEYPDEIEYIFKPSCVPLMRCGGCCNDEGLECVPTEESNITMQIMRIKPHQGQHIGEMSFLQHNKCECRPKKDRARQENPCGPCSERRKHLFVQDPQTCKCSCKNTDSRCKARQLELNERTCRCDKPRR
Description: The solutions from the tubes were then transferred to the ELISA plates and incubated for 5 minutes. […] Using an excitation wavelength of 535 nm, fluorescent emission at 595 nm was recorded by Beckman Coulter DTX880 photometer (Brea, Calif.) as a function of capture agent concentration. The titration curves were fit using a four-parameter regression curve fitting program (Origin 8.5, Northampton, Mass.). Concentrations of peptides corresponding to the midpoint absorbance of the titration curve were calculated and used as the IC50 values.

[5] = in vivo, mouse plasma, IP, 5 mg/kg
[6] = in vivo, mouse plasma, IV, 1 mg/kg

C=C(NC(=O)[C@@H]1CCCN1C(=O)[C@H](CCC(=O)O)NC(=O)[C@@H](C)C(C)C)C(=O)N[C@@H]1CSSCC(C(=O)N[C@@H](Cc2ccccc2)C(=O)NC(CCC(=O)O)C(=O)NC(CCCN)C(=O)N[C@@H](CC(C)C)C(=O)NC(CCCCn2cc(CC(N)C(=O)NC(Cc3ccccc3)C(=O)N[C@H](CO)C(=O)N[C@H](CCCNC(=N)N)C(=O)NC(CCCCN)C(=O)N[C@@H](C(=O)NC(CCC(=O)O)C(N)=O)C(C)O)nn2)C(=O)O)NC(=O)[C@H](CCC(=O)O)NC(=O)[C@H](Cc2c[nH]c3ccccc23)NC(=O)[C@H](CCC(=O)O)NC(=O)[C@H](Cc2c[nH]c3ccccc23)NC(=O)[C@H](CCSC)NC(=O)[C@H](C(C)C)NC(=O)[C@H](Cc2cnc[nH]2)NC(=O)C([C@@H](C)CC)NC(=O)[C@H](CC(=O)O)NC1=O (stereo partly shown) [Biligand 3]
plasma protein binding [1]: higher levels of plasma protein binding

Cc1cc(C)c(/C=C2\C(=O)Nc3ccccc32)[nH]1 [SU5416]
IC50 [2]: 48 nM

CC[C@@H](C)[C@@H](NC(=O)[C@@H](CCC(=O)O)NC(=O)[C@@H](CCC(=O)O)NC(=O)[C@H](N)Cc1cn(CCCC[C@H](NC(=O)[C@@H](Cc2c[nH]c3ccccc23)NC(=O)[C@@H](CCC(=O)O)NC(=O)[C@@H](CCCNC(=N)N)NC(=O)[C@@H](Cc2ccccc2)NC(=O)[C@@H](CC(C)C)NC(=O)[C@H](N)Cc2cn(CCCC[C@H](NC(=O)[C@H](CC(C)C)NC(=O)[C@H](CCCNC(=N)N)NC(=O)[C@H](CCC(=O)O)NC(=O)[C@H](Cc3ccccc3)NC(=O)[C@@H]3CSSC[C@H](NC(=O)[C@H](CC(N)=O)NC(=O)[C@@H]4CCCN4C(=O)[C@H](CCC(=O)O)NC(=O)[C@@H](NC(C)=O)C(C)C)C(=O)N[C@@H](CC(=O)O)C(=O)N[C@@H]([C@@H](C)CC)C(=O)N[C@@H](Cc4c[nH]cn4)C(=O)N[C@@H](C(C)C)C(=O)N[C@@H](CCSC)C(=O)N[C@@H](Cc4c[nH]c5ccccc45)C(=O)N[C@@H](CCC(=O)O)C(=O)N[C@@H](Cc4c[nH]c5ccccc45)C(=O)N[C@@H](CCC(=O)O)C(=O)N3)C(=O)O)nn2)C(=O)O)nn1)C(=O)N[C@H](CCCNC(=N)N)C(=O)N[C@H](CC(=O)O)C(N)=O [VEGF-PCC] (I: Ac-VEPNCDIHVMWEWECFERL[Lys(N3)]-OH / II: H-[dPra][dL][dF][dR][dE][dW][Lys(N3)]-OH / III: H-[dPra][dE][dE][dI][dR][dD]-NH2; disulfide I:5-I:15; triazole I:20-II:1, II:7-III:1)
AUC(0-inf) [3, 5]: 32200 ng·h/mL
AUC(0-t) [3, 5]: 31500 ng·h/mL
Cmax [3, 5]: 19800 ng/mL
Tmax [3, 5]: 30 min
AUC(0-inf) [3, 6]: 6490 ng·h/mL
AUC(0-t) [3, 6]: 6070 ng·h/mL
clearance [3, 6]: 2.57 mL/min/kg
half-life [3, 6]: 35.9 min
Vd ([3]; in vivo, mouse plasma, IV, 1 mg/kg, read-out: Vss): 0.0967 L/kg
Plasma concentration ([3]; IP 5 mg/kg, 10 minutes postdose, listed as IN-VT-1001, 5 mg/kg): 17500 ng/mL and 17000 ng/mL and 13400 ng/mL
Plasma concentration ([3]; IP 5 mg/kg, 30 minutes postdose, listed as IN-VT-1001, 5 mg/kg): 19400 ng/mL and 20200 ng/mL and BLQ
Plasma concentration ([3]; IP 5 mg/kg, 60 minutes postdose, listed as IN-VT-1001, 5 mg/kg): 10800 ng/mL and 23900 ng/mL and 11500 ng/mL
Plasma concentration ([3]; IP 5 mg/kg, 120 minutes postdose, listed as IN-VT-1001, 5 mg/kg): BLQ and 4730 ng/mL and 3640 ng/mL
Plasma concentration ([3]; IP 5 mg/kg, 240 minutes postdose, listed as IN-VT-1001, 5 mg/kg): 259 ng/mL and 807 ng/mL and BLQ
Plasma concentration ([3]; IP 5 mg/kg, 360 minutes postdose, listed as IN-VT-1001, 5 mg/kg): 390 ng/mL and BLQ (2×)
Plasma concentration ([3]; IP 5 mg/kg, 480 minutes postdose): BLQ
Plasma concentration ([3]; IP 5 mg/kg, 1440 minutes postdose): BLQ
Plasma concentration ([3]; IV 1 mg/kg, 3 minutes postdose, listed as IN-VT-1001, 1 mg/kg): 14200 ng/mL and 16200 ng/mL and 12000 ng/mL
Plasma concentration ([3]; IV 1 mg/kg, 10 minutes postdose, listed as IN-VT-1001, 1 mg/kg): 7220 ng/mL and 7550 ng/mL and 6110 ng/mL
Plasma concentration ([3]; IV 1 mg/kg, 30 minutes postdose, listed as IN-VT-1001, 1 mg/kg): 2170 ng/mL and 2210 ng/mL and 3420 ng/mL
Plasma concentration ([3]; IV 1 mg/kg, 60 minutes postdose, listed as IN-VT-1001, 1 mg/kg): 1840 ng/mL and 2380 ng/mL and 1870 ng/mL
Plasma concentration ([3]; IV 1 mg/kg, 120 minutes postdose, listed as IN-VT-1001, 1 mg/kg): 551 ng/mL and 400 ng/mL and 514 ng/mL
Plasma concentration ([3]; IV 1 mg/kg, 240 minutes postdose): BLQ
Plasma concentration ([3]; IV 1 mg/kg, 360 minutes postdose): BLQ
Plasma concentration ([3]; IV 1 mg/kg, 1440 minutes postdose): BLQ
Mean plasma concentration ([3]; mean, IP 5 mg/kg, 480 minutes postdose): 0.00 ng/mL
Mean plasma concentration ([3]; mean, IP 5 mg/kg, 1440 minutes postdose): 0.00 ng/mL
Mean plasma concentration ([3]; mean, IV 1 mg/kg, 240 minutes postdose): 0.00 ng/mL
Mean plasma concentration ([3]; mean, IV 1 mg/kg, 360 minutes postdose): 0.00 ng/mL
Mean plasma concentration ([3]; mean, IV 1 mg/kg, 1440 minutes postdose): 0.00 ng/mL
AUC % Ext ([3]; mouse plasma, IP, 5 mg/kg): 2.04%
AUC % Ext ([3]; mouse plasma, IV, 1 mg/kg): 6.49%
bioavailability ([3]; mouse, in vivo, ip, 5 mg/kg, mouse plasma, IP, 5 mg/kg, read-out: F (relative bioavailability)): ~99%
C0 ([3]; mouse, in vivo, 1 mg/kg, assuming IV dose 1 mg/kg, body weight 33 g, blood volume approximately 1.7 mL, read-out: theoretical C0): ~19400 ng/mL
C0 ([3]; mouse, in vivo, 1 mg/kg, mouse plasma, IV, 1 mg/kg, read-out: C0 (back-calculated)): 19100 ng/mL
level at 10 min ([3]; mouse, plasma, mean, IP 5 mg/kg, 10 minutes postdose, read-out: Mean plasma concentration): 16000 ng/mL
level at 0.5 h ([3]; mouse, plasma, mean, IP 5 mg/kg, 30 minutes postdose, read-out: Mean plasma concentration): 13200 ng/mL
level at 1 h ([3]; mouse, plasma, mean, IP 5 mg/kg, 60 minutes postdose, read-out: Mean plasma concentration): 15400 ng/mL
level at 2 h ([3]; mouse, plasma, mean, IP 5 mg/kg, 120 minutes postdose, read-out: Mean plasma concentration): 2790 ng/mL
level at 4 h ([3]; mouse, plasma, mean, IP 5 mg/kg, 240 minutes postdose, read-out: Mean plasma concentration): 355 ng/mL
level at 6 h ([3]; mouse, plasma, mean, IP 5 mg/kg, 360 minutes postdose, read-out: Mean plasma concentration): 130 ng/mL
level at 0.05 h ([3]; mouse, plasma, mean, IV 1 mg/kg, 3 minutes postdose, read-out: Mean plasma concentration): 14100 ng/mL
level at 10 min ([3]; mouse, plasma, mean, IV 1 mg/kg, 10 minutes postdose, read-out: Mean plasma concentration): 6960 ng/mL
level at 0.5 h ([3]; mouse, plasma, mean, IV 1 mg/kg, 30 minutes postdose, read-out: Mean plasma concentration): 2600 ng/mL
level at 1 h ([3]; mouse, plasma, mean, IV 1 mg/kg, 60 minutes postdose, read-out: Mean plasma concentration): 2030 ng/mL
level at 2 h ([3]; mouse, plasma, mean, IV 1 mg/kg, 120 minutes postdose, read-out: Mean plasma concentration): 488 ng/mL

X-VEPNCDIHVMWEWECFERL-Az4 ({code X}-VEPNCDIHVMWEWECFERL-Az4; cysteine pairing not given here; reading uncertain) [anchor, reference compound]
blocking of receptor binding at the concentrations tested [4]: Neither the anchor nor Biligand 2 blocked receptor binding
